Paper PMC8153216 (Chemical Science, 2021)

System: Coxsackievirus B3 (CVB3)
Assay: Anti Coxsackie B3 activity assay
Type: cell-based, Coxsackie viruse B3 (Nancy strain)
Details: CVB3 in Vero cells

Cc1cc(CCCOc2c(C)cc(-c3noc(C(F)(F)F)n3)cc2C)on1 [Pleconaril]
SI (TC50/IC50): 14045.1

NC(=O)c1ncn([C@@H]2O[C@H](CO)[C@@H](O)[C@H]2O)n1 [Ribavirin]
SI (TC50/IC50): 5.2
